Test results taken from patent publication US10752587B2, “Homobispiperidinyl derivatives as liver X receptor beta agonists, compositions and their use” (Merck Sharp & Dohme Corp., priority 2015, dated 2020).
pEC50: −log10 of the molar value.

Experiments:
[1] = molecular target: T1, glutathione-S-transferase (GST) tagged LXRalpha LBD (ligand binding domain) (Homo sapiens, UniProt Q13133); assay: LanthaScreen TR-FRET Liver X Receptor Coactivator Assay, co-activator recruitment to LXRalpha LBD; format: biochemical; settings: for Emax: read-out: LXR alpha Activity @ max dose (%); for LXR alpha IP (nM) / pEC50: potency (Inflection Point, IP), co-activator recruitment to LXRalpha LBD, in relation to T0901317; for pEC50: read-out: LXR alpha IP
T1 construct: purchased Invitrogen pv4655
T1 sequence (Q13133 209-447 limits assumed): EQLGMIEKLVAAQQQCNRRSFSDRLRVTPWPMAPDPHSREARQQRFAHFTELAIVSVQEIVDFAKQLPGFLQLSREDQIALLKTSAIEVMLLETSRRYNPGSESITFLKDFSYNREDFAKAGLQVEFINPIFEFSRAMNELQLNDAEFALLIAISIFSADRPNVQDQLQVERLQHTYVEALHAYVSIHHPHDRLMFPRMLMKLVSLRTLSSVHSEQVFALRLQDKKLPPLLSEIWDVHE
How it was run: (§1)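 Readout is time-resolved FRET between a terbium anti-GST antibody bound to the LBD and a fluorescein-tagged coactivator peptide recruited on ligand binding. Plates were incubated at room temperature before reading. Potency (IP) and efficacy (Emax) are referenced to T0901317.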

[2] = molecular target: T2, glutathione-S-transferase (GST) tagged LXRbeta LBD (ligand binding domain) (Homo sapiens, UniProt P55055); assay: LanthaScreen TR-FRET Liver X Receptor Coactivator Assay, co-activator recruitment to LXRbeta LBD; format: biochemical; settings: for Emax: read-out: LXR beta Activity @ max dose (%); for pEC50: potency (Inflection Point, IP), co-activator recruitment to LXRbeta LBD, in relation to T0901317, read-out: LXR beta IP
T2 construct: purchased Invitrogen pv4658.pps
T2 sequence (P55055 222-460 limits assumed): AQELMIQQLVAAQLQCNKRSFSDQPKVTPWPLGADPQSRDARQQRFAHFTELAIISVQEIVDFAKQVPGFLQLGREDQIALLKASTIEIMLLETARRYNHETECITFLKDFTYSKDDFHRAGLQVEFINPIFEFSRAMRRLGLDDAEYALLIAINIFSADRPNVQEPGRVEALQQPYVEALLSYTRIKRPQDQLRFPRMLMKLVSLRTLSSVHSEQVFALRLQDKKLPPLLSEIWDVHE
How it was run: as §1

[3] = efficacy at max dose, in relation to reference dual agonist T0901317

Row | SMILES | Emax [1, 3] [%] | LXR alpha IP (nM) [1] | Emax [2, 3] [%] | pEC50 [2] | pEC50 [1] | LXR alpha Activity @ max dose (%) [1, 3] [%] | LXR beta Activity @ max dose (%) [2, 3] [%]
1 | COc1cccc([C@@](O)(C(=O)N2CCC(CC3CCN(c4ccc(C(=O)N(C)C)c(Cl)c4)CC3)CC2)C(F)(F)F)c1 (single isomer, unassigned) [Example 2-34] | 1 | NO IP | 69 | 6.31 |  |  | 
2 | CN(C)C(=O)c1ccc(N2CCC(CC3CCN(C(=O)C(O)(c4cc(F)cc(F)c4)C(F)(F)F)CC3)CC2)cc1 (centres unmarked) [Example 2-126, 4-[4-({1-[2-(3,5-difluoro-phenyl)-3,3,3-trifluoro-2-hydroxy-propanoyl]piperidin-4-yl}methyl)piperidin-1-yl]-N,N-dimethyl-benzamide] | 33 |  | 118 | 7.42 | 6.90 |  | 
3 | CN(C)CCN(C)C(=O)c1ccc(N2CCC(CC3CCN(C(=O)[C@](O)(c4ccccc4)C(F)(F)F)CC3)CC2)cc1Cl [Example 4-13, 2-chloro-N-[2-(dimethylamino)ethyl]-N-methyl-4-[4-({1-[(2R)-3,3,3-trifluoro-2-hydroxy-2-phenylpropanoyl]piperidin-4-yl}methyl)piperidin-1-yl]benzamide] | 30 |  | 62 | 7.68 | 6.17 |  | 
4 | CN(C)C(=O)c1ccc(N2CCC(CC3CCN(C(=O)[C@@](O)(c4cccc(C(F)(F)F)c4)C(F)(F)F)CC3)CC2)cc1Cl [Example 2-33, 2-chloro-N,N-dimethyl-4-{4-[(1-{(2S)-3,3,3-trifluoro-2-hydroxy-2-[3-(trifluoromethyl)phenyl]propanoyl}piperidin-4-yl)methyl]piperidin-1-yl}benzamide] | 5 | NO IP | 75 | 6.14 |  |  | 
5 | CN(C)C(=O)c1ccc(N2CCC(CC3CCN(C(=O)[C@](O)(c4ccccc4)C(F)(F)C(F)(F)F)CC3)CC2)cc1Cl [Example 2-13, 2-chloro-N,N-dimethyl-4-[4-({1-[(2R)-3,3,4,4,4-pentafluoro-2-hydroxy-2-phenylbutanoyl]piperidin-4-yl}methyl)piperidin-1-yl]benzamide] |  |  |  |  | 6.75 | 56 | 119

The next lines start with the values.

Row | Emax [1, 3] [%] | LXR alpha IP (nM) [1] | Emax [2, 3] [%] | pEC50 [2] | pEC50 [1] | LXR alpha Activity @ max dose (%) [1, 3] [%] | LXR beta Activity @ max dose (%) [2, 3] [%] | SMILES
6 | 28 |  | 77 | 6.87 | 7.70 |  |  | COc1cccc([C@@](O)(C(=O)N2CC(CC3CCN(c4ccc(C(=O)N(C)C)c(C)n4)CC3)C2)C(F)(F)F)c1 [Example 7-10, N,N,2-trimethyl-6-[4-({1-[(2R)-3,3,3-trifluoro-2-hydroxy-2-(3-methoxyphenyl)propanoyl]azetidin-3-yl}methyl)piperidin-1-yl]pyridine-3-carboxamide]
7 | 7 | NO IP | 70 | 7.85 |  |  |  | COc1cccc([C@@](O)(C(=O)N2CCC(SC3CCN(c4ccc(C(=O)N(C)C)c(Cl)n4)CC3)CC2)C(F)(F)F)c1 [Example 9-2, 2-chloro-N,N-dimethyl-6-[4-({1-[(2R)-3,3,3-trifluoro-2-hydroxy-2-(3-methoxyphenyl)-propanoyl]piperidin-4-yl}sulfanyl)-piperidin-1-yl]-pyridine-3-carboxamide]
8 | 8 | NO IP | 73 | 7.72 |  |  |  | COc1cccc([C@@](O)(C(=O)N2CCC(CC3CCN(c4ccc(C(=O)N(C)C)c(C5CC5)n4)CC3)CC2)C(F)(F)F)c1 [Example 7-11, 2-cyclopropyl-N,N-dimethyl-6-[4-({1-[(2R)-3,3,3-trifluoro-2-hydroxy-2-(3-methoxyphenyl)propanoyl]piperidin-4-yl}methyl)piperidin-1-yl]pyridine-3-carboxamide]
9 | 16 | NO IP | 80 | 7.48 |  |  |  | CCc1cccc([C@@](O)(C(=O)N2CC(CC3CCN(c4ccc(C(=O)N(C)C)c(Cl)n4)CC3)C2)C(F)(F)F)c1 [Example 7-43, 2-chloro-6-[4-({1-[(2R)-2-(3-ethylphenyl)-3,3,3-trifluoro-2-hydroxypropanoyl]azetidin-3-yl}methyl)piperidin-1-yl]-N,N-dimethylpyridine-3-carboxamide]
